Laboratory results: PubChem BioAssay (NCI)
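Grown in 96-well plates, cells were treated for 48 hours with each compound at five concentrations. Insufficient inhibition: endpoint recorded as highest concentration tested. Here, GI50 denotes the concentration required for 50% inhibition of growth. At the TGI there is no net growth.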

What was measured:
Assay in all cases: inhibition of tumour cell growth, NCI panel, 48 h
[1] = tested on: PC-3 prostate
[2] = tested on: SNB-75 CNS
[3] = tested on: UACC-257 melanoma
[4] = tested on: HCC-2998 colon
[5] = tested on: UACC-62 melanoma
[6] = tested on: K-562 leukemia
[7] = tested on: NCI-H522 lung
[8] = tested on: MDA-MB-231 breast
[9] = tested on: HS 578T breast
[10] = tested on: SW-620 colon

| Compound | TGI [1] | TGI [2] | TGI [3] | TGI [4] | TGI [5] | TGI [6] | TGI [7] | TGI [8] | TGI [9] | TGI [10] | GI50 [6] |
| --- | --- | --- | --- | --- | --- | --- | --- | --- | --- | --- | --- |
| c1ccc(-c2cc(-c3cc(-c4ccccc4)n[nH]3)[nH]n2)cc1 | > 100 µM | > 100 µM | > 100 µM | > 100 µM | > 100 µM | > 100 µM | > 100 µM | > 100 µM | > 100 µM |  |  |
| N#Cc1nsnc1-c1nc(-c2nsnc2C#N)nc(-c2nsnc2C#N)n1 | > 100 µM | > 100 µM | > 100 µM | > 100 µM | > 100 µM | > 100 µM | > 100 µM | > 100 µM | 94 µM | > 100 µM |  |
| CC(C)(C)OC(=O)/C=C/C(=O)O/C=C/[N+](=O)[O-] |  | > 100 µM | > 100 µM | > 100 µM | > 100 µM | > 100 µM | > 100 µM | > 100 µM | > 100 µM | > 100 µM |  |
| c1ccc2c(Cc3c[nH]c4ccccc34)c[nH]c2c1 | 38.3 µM | 36.8 µM | 34.5 µM |  | > 100 µM | > 100 µM | 47.9 µM | 31.5 µM | 63.3 µM | 61.6 µM |  |
| Nc1ccccc1Sc1ccc(Cl)cc1 |  | 88.9 µM | 54.1 µM | > 100 µM | > 100 µM | 94.4 µM |  |  |  | > 100 µM |  |
| O=[N+]([O-])C(=C/C1CCCCC1)/C(=C\C1CCCCC1)[N+](=O)[O-] | 34.4 µM | 31.3 µM | 23.5 µM | 36.4 µM | 17.6 µM | > 82 µM | 4.3 µM | 8.98 µM | 18.4 µM | 17.4 µM |  |
| O=C1CNc2cc(N3CCN(c4cccc(C(F)(F)F)c4)CC3)ccc2N1 | > 82.7 µM | > 100 µM | > 100 µM | > 100 µM | > 86.1 µM | > 100 µM | 46 µM | > 100 µM | > 100 µM | > 100 µM | 9 µM |
| O=C(c1ccc(Cl)cc1)N(C(=S)N1CCN(c2ccccc2)CC1)c1ccccc1 |  | > 100 µM | > 100 µM |  | > 100 µM | > 100 µM | > 100 µM |  |  | > 100 µM |  |
| CCO[C@H]1C[C@@H](c2ccccc2)[C@]2(C)C[C@H](C(=O)OC)ON2O1 | > 100 µM |  | > 100 µM |  | > 100 µM | > 100 µM | > 100 µM | > 100 µM | > 100 µM | > 100 µM |  |
| Cc1ccc(N2C(=O)CC(=O)N(NC(=O)C(C)Oc3ccccc3C)C2=S)cc1 (stereo not drawn) | > 100 µM | > 100 µM | > 100 µM | > 100 µM | > 100 µM | > 100 µM | > 100 µM | > 100 µM | > 100 µM | > 100 µM |  |
| COc1ncc(C#CC(=O)c2ccccc2OC)c(OC)n1 | 4.3 µM | 10.2 µM | 8.79 µM | 13 µM | 7.49 µM | > 42.9 µM | 2.21 µM | 2.75 µM | > 32.4 µM | 2.73 µM |  |
| O=C1NC(N/N=C/C(O)C(O)C(O)C(O)CO)=N/C1=C\c1cccs1 (stereo not drawn) | > 100 µM | > 100 µM | > 100 µM | > 100 µM | > 100 µM | > 100 µM | > 100 µM | > 100 µM | > 100 µM | > 100 µM |  |
| NNC(=O)CCCCCCCC(=O)O | > 100 µM | > 100 µM | > 100 µM | > 100 µM | > 100 µM | > 100 µM | > 100 µM | > 100 µM | > 100 µM | > 100 µM |  |
| C=CCOc1ccc(C2c3c([nH][nH]c3=O)CC(C)(O)C2C(=O)OC)cc1OC (stereo not drawn) | > 100 µM | > 100 µM | > 100 µM | > 100 µM | > 100 µM |  | > 100 µM | > 100 µM | > 100 µM | > 100 µM |  |
| C=C(Br)C(Cl)(CBr)CCC(Br)C(C)(C)Cl (stereo not drawn) | > 10 µM | > 10 µM |  | > 10 µM | > 10 µM | > 10 µM | > 10 µM | > 10 µM |  | > 10 µM |  |
| C=C1CC(CNc2cc(Cl)nc(N)n2)C1 | > 100 µM | > 100 µM | > 100 µM | > 100 µM | > 100 µM | > 100 µM | > 100 µM | > 100 µM | > 100 µM | > 100 µM |  |
| COC(=O)CC1(O)C(C=C(C)C)C(C(=O)OC)C(=O)C(C(=O)OC)C1C(=O)OC (stereo not drawn) | > 100 µM |  | > 100 µM | > 100 µM | > 100 µM | > 100 µM | > 100 µM | > 100 µM | > 100 µM | > 100 µM |  |
| FC(F)(F)C1(C(F)(F)F)OC(Cl)(Cl)C(Cl)(Cl)O1 | > 10 µM |  | > 10 µM | > 10 µM | > 10 µM |  | > 10 µM | > 10 µM | > 10 µM | > 10 µM |  |
| C/C=C/[C@@H]1O[C@H](CC#C[Si](C)(C)C)[C@@]2(C=O)C(C)=CC[C@H](C(C)C)[C@@H]12 | 33.8 µM | 54.1 µM | 32.5 µM | 36.5 µM | 32.6 µM | > 100 µM | 4.78 µM | 36.6 µM | > 100 µM | 59.5 µM |  |
| O=C(CN=C(CN(c1ccccc1)c1ccccc1)Oc1c([N+](=O)[O-])cc([N+](=O)[O-])cc1[N+](=O)[O-])N1CCNCC1 | > 100 µM | > 100 µM | > 100 µM | > 100 µM | > 100 µM | > 100 µM | > 100 µM | > 100 µM | > 100 µM | > 100 µM |  |
| Cc1[nH]n(-c2nc(O)c(C)c(=O)[nH]2)c(=O)c1CCO | > 100 µM | > 100 µM | > 100 µM |  | > 100 µM | > 100 µM | > 100 µM | > 100 µM | > 100 µM | > 100 µM |  |
| CC(=O)/C=C/c1c[nH]c(=O)[nH]c1=O |  | 681 µM | 641 µM | 480 µM | 574 µM | 967 µM | 295 µM |  |  | 696 µM |  |
